# Results from ChEMBL document CHEMBL3991601, “The target landscape of clinical kinase drugs” (Science, 2017).
# Calls of active or inactive are those of the source. For most assays here, no stated cut-off is given here; in the data, actives have a measured Kd and inactives only a lower limit.
# Molecular target: T1, Serine/threonine-protein kinase ULK1 (Homo sapiens, UniProt O75385)
# T1 sequence (O75385 whole entry): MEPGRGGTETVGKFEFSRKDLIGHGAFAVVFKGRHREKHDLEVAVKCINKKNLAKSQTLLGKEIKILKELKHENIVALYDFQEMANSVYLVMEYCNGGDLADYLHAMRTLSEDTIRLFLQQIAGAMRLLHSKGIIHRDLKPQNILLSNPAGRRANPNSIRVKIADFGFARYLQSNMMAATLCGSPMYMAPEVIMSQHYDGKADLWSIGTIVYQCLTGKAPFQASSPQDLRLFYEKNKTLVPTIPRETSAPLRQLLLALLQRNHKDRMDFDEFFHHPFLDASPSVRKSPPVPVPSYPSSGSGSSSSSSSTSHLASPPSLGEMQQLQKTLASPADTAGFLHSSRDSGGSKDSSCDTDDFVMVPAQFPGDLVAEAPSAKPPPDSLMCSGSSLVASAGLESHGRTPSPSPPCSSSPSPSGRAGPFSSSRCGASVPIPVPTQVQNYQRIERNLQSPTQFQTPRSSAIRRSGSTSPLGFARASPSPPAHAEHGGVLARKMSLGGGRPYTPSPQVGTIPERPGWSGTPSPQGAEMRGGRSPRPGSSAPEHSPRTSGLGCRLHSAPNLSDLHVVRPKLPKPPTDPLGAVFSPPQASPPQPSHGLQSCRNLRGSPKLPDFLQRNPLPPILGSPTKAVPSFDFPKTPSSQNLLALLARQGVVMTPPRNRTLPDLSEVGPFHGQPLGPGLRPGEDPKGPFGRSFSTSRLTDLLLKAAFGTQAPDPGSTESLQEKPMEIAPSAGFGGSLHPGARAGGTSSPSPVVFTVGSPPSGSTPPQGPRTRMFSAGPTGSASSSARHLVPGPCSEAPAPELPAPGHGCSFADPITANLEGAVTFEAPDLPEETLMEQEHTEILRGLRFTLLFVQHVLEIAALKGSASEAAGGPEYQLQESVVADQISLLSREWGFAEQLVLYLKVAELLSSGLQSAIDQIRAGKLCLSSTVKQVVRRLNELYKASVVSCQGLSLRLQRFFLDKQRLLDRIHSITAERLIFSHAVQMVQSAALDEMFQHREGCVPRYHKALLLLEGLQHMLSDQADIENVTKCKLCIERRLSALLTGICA
row,Compound,Kd
1,CN1N=C(N)c2cn([C@@H]3O[C@H](COP(=O)(O)O)[C@@H](O)[C@H]3O)c3ncnc1c23 [TRICIRIBINE PHOSPHATE],> 30 µM (inactive)
2,CC(C)Nc1cc(-c2c[nH]c(C(=O)N[C@H](CO)c3cccc(Cl)c3)c2)c(Cl)cn1 [ULIXERTINIB],> 30 µM (inactive)
3,CCCS(=O)(=O)Nc1ccc(F)c(C(=O)c2c[nH]c3ncc(-c4ccc(Cl)cc4)cc23)c1F [VEMURAFENIB],> 30 µM (inactive)
4,CC[C@@H]1C(=O)N(C)c2cnc(Nc3ccc(C(=O)N[C@H]4CC[C@H](N5CCN(CC6CC6)CC5)CC4)cc3OC)nc2N1C(C)C [VOLASERTIB],> 30 µM (inactive)
5,O=C(Nc1ccc(-c2ccnc(Nc3ccc(N4CCOCC4)cc3)n2)cc1)C1CCCN1 (stereo not given) [XL-019],> 30 µM (inactive)

# Molecular target: T2, MAP kinase-activated protein kinase 5 (Homo sapiens, UniProt Q8IW41)
# T2 sequence (Q8IW41 whole entry): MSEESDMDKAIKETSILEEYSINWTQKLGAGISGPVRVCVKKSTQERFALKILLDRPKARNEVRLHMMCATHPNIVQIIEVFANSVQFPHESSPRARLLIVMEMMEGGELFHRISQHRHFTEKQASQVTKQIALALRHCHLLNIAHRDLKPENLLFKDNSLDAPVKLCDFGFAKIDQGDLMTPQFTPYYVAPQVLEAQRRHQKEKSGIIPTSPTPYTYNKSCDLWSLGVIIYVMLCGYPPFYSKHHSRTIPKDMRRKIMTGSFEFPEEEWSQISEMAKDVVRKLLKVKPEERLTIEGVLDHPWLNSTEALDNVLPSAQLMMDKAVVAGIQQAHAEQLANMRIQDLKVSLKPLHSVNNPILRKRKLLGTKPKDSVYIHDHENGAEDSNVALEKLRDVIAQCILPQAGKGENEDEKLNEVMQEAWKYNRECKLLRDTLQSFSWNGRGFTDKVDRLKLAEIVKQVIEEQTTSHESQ
row,Compound,Kd
1,CN1N=C(N)c2cn([C@@H]3O[C@H](COP(=O)(O)O)[C@@H](O)[C@H]3O)c3ncnc1c23 [TRICIRIBINE PHOSPHATE],> 30 µM (inactive)
2,CC(C)Nc1cc(-c2c[nH]c(C(=O)N[C@H](CO)c3cccc(Cl)c3)c2)c(Cl)cn1 [ULIXERTINIB],> 30 µM (inactive)
3,CCCS(=O)(=O)Nc1ccc(F)c(C(=O)c2c[nH]c3ncc(-c4ccc(Cl)cc4)cc23)c1F [VEMURAFENIB],> 30 µM (inactive)
4,CC[C@@H]1C(=O)N(C)c2cnc(Nc3ccc(C(=O)N[C@H]4CC[C@H](N5CCN(CC6CC6)CC5)CC4)cc3OC)nc2N1C(C)C [VOLASERTIB],> 30 µM (inactive)
5,O=C(Nc1ccc(-c2ccnc(Nc3ccc(N4CCOCC4)cc3)n2)cc1)C1CCCN1 (stereo not given) [XL-019],> 30 µM (inactive)

# Molecular target: Calcium/calmodulin-dependent protein kinase kinase 2 (Homo sapiens, UniProt Q96RR4)
# Sequence (Q96RR4 whole entry): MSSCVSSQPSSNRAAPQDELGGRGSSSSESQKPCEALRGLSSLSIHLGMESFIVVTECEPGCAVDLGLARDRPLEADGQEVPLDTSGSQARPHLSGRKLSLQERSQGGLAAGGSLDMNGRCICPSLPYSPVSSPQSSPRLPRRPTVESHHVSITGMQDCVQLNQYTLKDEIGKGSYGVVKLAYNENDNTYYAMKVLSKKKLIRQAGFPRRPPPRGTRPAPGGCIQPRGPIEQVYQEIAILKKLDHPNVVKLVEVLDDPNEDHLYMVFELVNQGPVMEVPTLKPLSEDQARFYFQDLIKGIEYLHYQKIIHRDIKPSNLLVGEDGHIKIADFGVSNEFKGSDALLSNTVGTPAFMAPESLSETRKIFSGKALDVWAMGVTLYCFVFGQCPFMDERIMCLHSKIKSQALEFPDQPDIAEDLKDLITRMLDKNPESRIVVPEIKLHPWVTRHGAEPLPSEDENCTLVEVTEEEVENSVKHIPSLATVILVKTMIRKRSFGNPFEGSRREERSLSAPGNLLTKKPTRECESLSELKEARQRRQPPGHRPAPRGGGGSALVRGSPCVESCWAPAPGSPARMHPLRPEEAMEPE
row,Compound,Kd
1,CN1N=C(N)c2cn([C@@H]3O[C@H](COP(=O)(O)O)[C@@H](O)[C@H]3O)c3ncnc1c23 [TRICIRIBINE PHOSPHATE],> 30 µM (inactive)
2,CC(C)Nc1cc(-c2c[nH]c(C(=O)N[C@H](CO)c3cccc(Cl)c3)c2)c(Cl)cn1 [ULIXERTINIB],> 30 µM (inactive)
3,CCCS(=O)(=O)Nc1ccc(F)c(C(=O)c2c[nH]c3ncc(-c4ccc(Cl)cc4)cc23)c1F [VEMURAFENIB],> 30 µM (inactive)
4,CC[C@@H]1C(=O)N(C)c2cnc(Nc3ccc(C(=O)N[C@H]4CC[C@H](N5CCN(CC6CC6)CC5)CC4)cc3OC)nc2N1C(C)C [VOLASERTIB],0.195 µM (active)
5,O=C(Nc1ccc(-c2ccnc(Nc3ccc(N4CCOCC4)cc3)n2)cc1)C1CCCN1 (stereo not given) [XL-019],> 30 µM (inactive)

# Molecular target: Insulin-like growth factor 1 receptor (Homo sapiens, UniProt P08069)
# Sequence (P08069 31-736 limits assumed): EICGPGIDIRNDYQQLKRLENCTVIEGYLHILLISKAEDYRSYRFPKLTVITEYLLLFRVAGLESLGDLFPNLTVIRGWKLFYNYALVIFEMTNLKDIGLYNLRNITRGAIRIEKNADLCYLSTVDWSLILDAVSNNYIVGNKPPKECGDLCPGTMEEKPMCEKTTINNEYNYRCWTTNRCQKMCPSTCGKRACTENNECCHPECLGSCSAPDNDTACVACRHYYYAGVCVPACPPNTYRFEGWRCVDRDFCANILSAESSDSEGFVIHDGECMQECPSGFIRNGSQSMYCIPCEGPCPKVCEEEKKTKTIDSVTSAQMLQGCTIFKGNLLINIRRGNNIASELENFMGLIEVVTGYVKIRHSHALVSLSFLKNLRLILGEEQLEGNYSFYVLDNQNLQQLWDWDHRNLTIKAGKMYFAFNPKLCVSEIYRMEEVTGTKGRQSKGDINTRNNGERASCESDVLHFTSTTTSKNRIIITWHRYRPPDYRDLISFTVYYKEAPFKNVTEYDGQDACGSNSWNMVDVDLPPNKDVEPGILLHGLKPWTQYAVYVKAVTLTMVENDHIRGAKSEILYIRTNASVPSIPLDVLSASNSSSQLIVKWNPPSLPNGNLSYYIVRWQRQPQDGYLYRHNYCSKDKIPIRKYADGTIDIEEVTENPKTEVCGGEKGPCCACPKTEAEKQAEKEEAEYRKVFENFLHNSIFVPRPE
# Sequence (P08069 741-1367 limits assumed): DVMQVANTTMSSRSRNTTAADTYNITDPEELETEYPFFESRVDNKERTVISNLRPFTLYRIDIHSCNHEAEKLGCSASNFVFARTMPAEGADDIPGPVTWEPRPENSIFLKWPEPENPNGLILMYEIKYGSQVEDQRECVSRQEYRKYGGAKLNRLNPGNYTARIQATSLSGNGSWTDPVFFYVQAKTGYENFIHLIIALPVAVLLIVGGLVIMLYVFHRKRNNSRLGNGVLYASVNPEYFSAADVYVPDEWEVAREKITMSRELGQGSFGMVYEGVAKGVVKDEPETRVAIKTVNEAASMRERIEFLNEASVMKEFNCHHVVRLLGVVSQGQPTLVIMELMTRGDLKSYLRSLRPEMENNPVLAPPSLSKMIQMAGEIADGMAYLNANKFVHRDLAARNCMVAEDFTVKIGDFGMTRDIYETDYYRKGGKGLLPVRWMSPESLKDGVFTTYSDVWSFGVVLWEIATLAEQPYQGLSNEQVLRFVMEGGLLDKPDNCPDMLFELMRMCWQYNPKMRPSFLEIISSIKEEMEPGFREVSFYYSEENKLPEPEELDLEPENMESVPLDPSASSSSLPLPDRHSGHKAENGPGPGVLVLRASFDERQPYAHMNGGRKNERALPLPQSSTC
row,Compound,Kd
1,CN1N=C(N)c2cn([C@@H]3O[C@H](COP(=O)(O)O)[C@@H](O)[C@H]3O)c3ncnc1c23 [TRICIRIBINE PHOSPHATE],> 30 µM (inactive)
2,CC(C)Nc1cc(-c2c[nH]c(C(=O)N[C@H](CO)c3cccc(Cl)c3)c2)c(Cl)cn1 [ULIXERTINIB],> 30 µM (inactive)
3,CCCS(=O)(=O)Nc1ccc(F)c(C(=O)c2c[nH]c3ncc(-c4ccc(Cl)cc4)cc23)c1F [VEMURAFENIB],> 30 µM (inactive)
4,CC[C@@H]1C(=O)N(C)c2cnc(Nc3ccc(C(=O)N[C@H]4CC[C@H](N5CCN(CC6CC6)CC5)CC4)cc3OC)nc2N1C(C)C [VOLASERTIB],> 30 µM (inactive)
5,O=C(Nc1ccc(-c2ccnc(Nc3ccc(N4CCOCC4)cc3)n2)cc1)C1CCCN1 (stereo not given) [XL-019],> 30 µM (inactive)

# Molecular target: T3, Phosphorylase b kinase gamma catalytic chain, liver/testis isoform (Homo sapiens, UniProt P15735)
# T3 sequence (P15735 whole entry): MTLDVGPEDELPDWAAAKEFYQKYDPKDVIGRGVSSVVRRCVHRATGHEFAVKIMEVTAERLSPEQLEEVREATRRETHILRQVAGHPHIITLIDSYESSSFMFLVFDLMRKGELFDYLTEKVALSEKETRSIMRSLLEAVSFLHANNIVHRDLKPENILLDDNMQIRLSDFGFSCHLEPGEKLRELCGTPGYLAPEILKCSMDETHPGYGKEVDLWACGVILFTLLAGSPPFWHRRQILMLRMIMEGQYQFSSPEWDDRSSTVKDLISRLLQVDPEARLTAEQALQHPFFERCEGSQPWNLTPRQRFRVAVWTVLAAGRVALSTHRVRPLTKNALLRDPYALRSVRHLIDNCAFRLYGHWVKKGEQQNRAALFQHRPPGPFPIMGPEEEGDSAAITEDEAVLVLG
row,Compound,Kd
1,CN1N=C(N)c2cn([C@@H]3O[C@H](COP(=O)(O)O)[C@@H](O)[C@H]3O)c3ncnc1c23 [TRICIRIBINE PHOSPHATE],> 30 µM (inactive)
2,CC(C)Nc1cc(-c2c[nH]c(C(=O)N[C@H](CO)c3cccc(Cl)c3)c2)c(Cl)cn1 [ULIXERTINIB],> 30 µM (inactive)
3,CCCS(=O)(=O)Nc1ccc(F)c(C(=O)c2c[nH]c3ncc(-c4ccc(Cl)cc4)cc23)c1F [VEMURAFENIB],> 30 µM (inactive)
4,CC[C@@H]1C(=O)N(C)c2cnc(Nc3ccc(C(=O)N[C@H]4CC[C@H](N5CCN(CC6CC6)CC5)CC4)cc3OC)nc2N1C(C)C [VOLASERTIB],> 30 µM (inactive)
5,O=C(Nc1ccc(-c2ccnc(Nc3ccc(N4CCOCC4)cc3)n2)cc1)C1CCCN1 (stereo not given) [XL-019],> 30 µM (inactive)

# Molecular target: Focal adhesion kinase 1 (Homo sapiens, UniProt Q05397)
# Sequence (Q05397 whole entry): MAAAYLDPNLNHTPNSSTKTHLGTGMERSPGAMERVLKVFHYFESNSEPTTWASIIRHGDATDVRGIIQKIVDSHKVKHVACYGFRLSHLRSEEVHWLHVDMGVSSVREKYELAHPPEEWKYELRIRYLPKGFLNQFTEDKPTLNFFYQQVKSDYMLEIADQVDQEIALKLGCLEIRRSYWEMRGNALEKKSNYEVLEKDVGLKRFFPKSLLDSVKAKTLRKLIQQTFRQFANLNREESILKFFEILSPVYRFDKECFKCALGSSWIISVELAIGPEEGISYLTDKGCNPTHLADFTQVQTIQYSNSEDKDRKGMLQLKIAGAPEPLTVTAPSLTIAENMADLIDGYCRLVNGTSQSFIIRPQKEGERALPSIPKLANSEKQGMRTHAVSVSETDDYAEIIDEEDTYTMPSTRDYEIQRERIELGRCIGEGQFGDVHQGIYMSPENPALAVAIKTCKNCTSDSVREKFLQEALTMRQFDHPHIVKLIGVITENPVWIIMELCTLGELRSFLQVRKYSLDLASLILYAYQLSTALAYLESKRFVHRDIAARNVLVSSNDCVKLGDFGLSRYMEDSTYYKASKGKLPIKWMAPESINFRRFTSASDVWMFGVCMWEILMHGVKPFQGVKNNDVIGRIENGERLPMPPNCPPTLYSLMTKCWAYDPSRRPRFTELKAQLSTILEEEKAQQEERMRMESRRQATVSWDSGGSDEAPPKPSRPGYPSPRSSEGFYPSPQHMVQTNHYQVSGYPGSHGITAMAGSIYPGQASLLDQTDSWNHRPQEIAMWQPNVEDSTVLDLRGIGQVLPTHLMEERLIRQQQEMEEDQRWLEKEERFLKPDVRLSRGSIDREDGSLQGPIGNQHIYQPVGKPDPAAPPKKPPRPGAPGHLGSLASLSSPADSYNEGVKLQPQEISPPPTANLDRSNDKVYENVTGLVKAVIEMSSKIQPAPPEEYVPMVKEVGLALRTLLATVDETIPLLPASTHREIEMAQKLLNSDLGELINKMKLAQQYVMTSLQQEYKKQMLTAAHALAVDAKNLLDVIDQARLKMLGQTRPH
row,Compound,Kd
1,CN1N=C(N)c2cn([C@@H]3O[C@H](COP(=O)(O)O)[C@@H](O)[C@H]3O)c3ncnc1c23 [TRICIRIBINE PHOSPHATE],> 30 µM (inactive)
2,CC(C)Nc1cc(-c2c[nH]c(C(=O)N[C@H](CO)c3cccc(Cl)c3)c2)c(Cl)cn1 [ULIXERTINIB],> 30 µM (inactive)
3,CCCS(=O)(=O)Nc1ccc(F)c(C(=O)c2c[nH]c3ncc(-c4ccc(Cl)cc4)cc23)c1F [VEMURAFENIB],> 30 µM (inactive)
4,CC[C@@H]1C(=O)N(C)c2cnc(Nc3ccc(C(=O)N[C@H]4CC[C@H](N5CCN(CC6CC6)CC5)CC4)cc3OC)nc2N1C(C)C [VOLASERTIB],0.601 µM (active)
5,O=C(Nc1ccc(-c2ccnc(Nc3ccc(N4CCOCC4)cc3)n2)cc1)C1CCCN1 (stereo not given) [XL-019],> 30 µM (inactive)

# Molecular target: T4, Rab-like protein 3 (Homo sapiens, UniProt Q5HYI8)
# T4 sequence (Q5HYI8 whole entry): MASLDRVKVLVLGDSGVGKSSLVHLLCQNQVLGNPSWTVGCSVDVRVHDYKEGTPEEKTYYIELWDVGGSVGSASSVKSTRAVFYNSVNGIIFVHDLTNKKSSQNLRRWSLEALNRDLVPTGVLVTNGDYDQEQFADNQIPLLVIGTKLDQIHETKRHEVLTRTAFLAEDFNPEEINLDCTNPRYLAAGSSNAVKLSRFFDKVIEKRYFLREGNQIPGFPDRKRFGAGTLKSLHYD
row,Compound,Kd
1,CN1N=C(N)c2cn([C@@H]3O[C@H](COP(=O)(O)O)[C@@H](O)[C@H]3O)c3ncnc1c23 [TRICIRIBINE PHOSPHATE],> 30 µM (inactive)
2,CC(C)Nc1cc(-c2c[nH]c(C(=O)N[C@H](CO)c3cccc(Cl)c3)c2)c(Cl)cn1 [ULIXERTINIB],> 30 µM (inactive)
3,CCCS(=O)(=O)Nc1ccc(F)c(C(=O)c2c[nH]c3ncc(-c4ccc(Cl)cc4)cc23)c1F [VEMURAFENIB],> 30 µM (inactive)
4,CC[C@@H]1C(=O)N(C)c2cnc(Nc3ccc(C(=O)N[C@H]4CC[C@H](N5CCN(CC6CC6)CC5)CC4)cc3OC)nc2N1C(C)C [VOLASERTIB],> 30 µM (inactive)
5,O=C(Nc1ccc(-c2ccnc(Nc3ccc(N4CCOCC4)cc3)n2)cc1)C1CCCN1 (stereo not given) [XL-019],> 30 µM (inactive)

# Molecular target: TGF-beta receptor type-2 (Homo sapiens, UniProt P37173)
# Sequence (P37173 whole entry): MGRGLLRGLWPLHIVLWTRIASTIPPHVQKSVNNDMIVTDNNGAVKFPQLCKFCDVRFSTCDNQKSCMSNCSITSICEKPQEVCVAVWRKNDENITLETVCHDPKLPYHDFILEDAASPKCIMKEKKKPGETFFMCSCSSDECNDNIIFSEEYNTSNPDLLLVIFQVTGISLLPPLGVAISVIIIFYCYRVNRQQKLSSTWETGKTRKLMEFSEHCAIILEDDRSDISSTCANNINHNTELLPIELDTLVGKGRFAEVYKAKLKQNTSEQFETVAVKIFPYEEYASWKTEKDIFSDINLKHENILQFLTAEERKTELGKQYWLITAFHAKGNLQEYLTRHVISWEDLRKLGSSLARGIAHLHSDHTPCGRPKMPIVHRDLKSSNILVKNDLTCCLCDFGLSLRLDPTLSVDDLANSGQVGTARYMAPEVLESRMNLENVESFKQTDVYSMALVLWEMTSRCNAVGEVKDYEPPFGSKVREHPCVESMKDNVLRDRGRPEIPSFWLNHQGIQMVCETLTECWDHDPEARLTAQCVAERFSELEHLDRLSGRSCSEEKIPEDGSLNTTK
row,Compound,Kd
1,CN1N=C(N)c2cn([C@@H]3O[C@H](COP(=O)(O)O)[C@@H](O)[C@H]3O)c3ncnc1c23 [TRICIRIBINE PHOSPHATE],> 30 µM (inactive)
2,CC(C)Nc1cc(-c2c[nH]c(C(=O)N[C@H](CO)c3cccc(Cl)c3)c2)c(Cl)cn1 [ULIXERTINIB],> 30 µM (inactive)
3,CCCS(=O)(=O)Nc1ccc(F)c(C(=O)c2c[nH]c3ncc(-c4ccc(Cl)cc4)cc23)c1F [VEMURAFENIB],3.4 µM (active)
4,CC[C@@H]1C(=O)N(C)c2cnc(Nc3ccc(C(=O)N[C@H]4CC[C@H](N5CCN(CC6CC6)CC5)CC4)cc3OC)nc2N1C(C)C [VOLASERTIB],> 30 µM (inactive)
5,O=C(Nc1ccc(-c2ccnc(Nc3ccc(N4CCOCC4)cc3)n2)cc1)C1CCCN1 (stereo not given) [XL-019],> 30 µM (inactive)
